Reference: patent US9550792B2, “Polycyclic substituted pyrazole kinase activity inhibitors and use thereof” (priority 2013, dated 2017)

Key:
CDK2/A = biological target: T1, CDK2/A (Homo sapiens, UniProt P24941); test: Inhibitory activity to CDK2 (FRET); format: biochemical; conditions: for inhibition at 1 µM: read-out: CDK2 inhibition % (1 × 10^−6 mol/L)
T1 construct: purchased
Procedure: CDK2/A was purchased in the form of a kit or obtained through purification.
Procedures: CDK2/A is diluted to a suitable concentration with kinase diluent. The kinase reaction mixture contains CDK2/A, peptide substrate, HEPES (pH7.5), BRIJ-35, MgCl2 and EDTA. CDK2 phospho-peptide substrate is used as the control of 100% phosphorylation and ATP-free as the control of 0% phosphorylation. After 1 h, the diluted Development Reagent A is added into the reaction system. Then the reaction is allowed to proceed for 1 h and then quenched with Stop Reagent. […] The inhibitions of the tested compounds are calculated according to the formula.

Aurora A = biological target: T2, Aurora A (Homo sapiens, UniProt O14965); test: Inhibitory activity to Aurora A (FRET); format: biochemical; conditions: for inhibition at 1 µM: read-out: Aurora A inhibition % (1 × 10^−6 mol/L)
T2 construct: purchased
T2 sequence (O14965 1-403): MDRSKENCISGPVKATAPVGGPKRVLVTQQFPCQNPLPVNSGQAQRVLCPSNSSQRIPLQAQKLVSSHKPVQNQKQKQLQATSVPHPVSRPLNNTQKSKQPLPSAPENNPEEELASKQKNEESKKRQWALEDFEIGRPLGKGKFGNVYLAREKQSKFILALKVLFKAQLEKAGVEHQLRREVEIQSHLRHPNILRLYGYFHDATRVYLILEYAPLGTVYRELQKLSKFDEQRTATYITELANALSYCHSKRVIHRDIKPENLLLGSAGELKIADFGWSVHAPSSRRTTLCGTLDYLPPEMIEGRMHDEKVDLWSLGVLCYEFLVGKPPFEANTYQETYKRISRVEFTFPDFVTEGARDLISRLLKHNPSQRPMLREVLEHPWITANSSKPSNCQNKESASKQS
Procedure: The inhibitory activities of the synthesized compounds for Aurora A is determined by fluorescence resonance energy transfer (FRET) and were compared with the positive control drug so as to screen the compounds with better activities. Aurora A was purchased in the form of a kit or obtained through purification. Procedures: Aurora A is diluted to a suitable concentration with kinase diluent. The kinase reaction mixture contains Aurora A, peptide substrate, HEPES (pH7.5), BRIJ-35, MgCl2 and EDTA. Aurora A phospho-peptide substrate is used as the control of 100% phosphorylation and ATP-free as the control of 0% phosphorylation. After 1 h, the diluted Development Reagent A is added into the reaction system. Then the reaction is allowed to proceed for 1 h and then quenched with Stop Reagent. The excitation wavelength is 400 nm and the fluorescence intensity is detected at 445 nm (coumarin) and 520 nm (fluorescein). The inhibitions of the tested compounds are calculated according to the formula.

Compound | CDK2 inhibition % (1 × 10^−6 mol/L) (CDK2/A) | Aurora A inhibition % (1 × 10^−6 mol/L) (Aurora A) | inhibition at 1 µM (CDK2/A) | inhibition at 1 µM (Aurora A) | melting point
Cc1cc2c(Nc3c[nH]nc3C(=O)Nc3ccc(CN4CCOCC4)cc3)ncnc2s1 [Compound I-4, 4-(4-(6-methylthieno[2,3-d]pyrimidinyl)amino)-N-(4-((4-morpholinyl)methyl)phenyl)-1H-3-pyrazolecarboxamide] | 52.73% | 64.46% |  |  | 
Cc1csc2ncnc(Nc3c[nH]nc3C(=O)Nc3ccc(CN4CCN(C)CC4)cc3)c12 [Compound I-5, 4-(4-(5-methylthieno[2,3-d]pyrimidinyl)amino)-N-(4-((4-methyl-1-piperazinyl)methyl)phenyl)-1H-3-pyrazolecarboxamide] | 51.24% | 58.62% |  |  | 
Cc1csc2ncnc(Nc3c[nH]nc3C(=O)Nc3ccc(CN4CCOCC4)cc3)c12 [Compound I-6, 4-(4-(5-methylthieno[2,3-d]pyrimidinyl)amino)-N-(4-((4-morpholinyl)methyl)phenyl)-1H-3-pyrazolecarboxamide] | 60.68% | 54.80% |  |  | 
Cc1sc2ncnc(Nc3c[nH]nc3C(=O)Nc3ccc(CN4CCN(C)CC4)cc3)c2c1C [Compound I-7, 4-(4-(5,6-dimethylthieno[2,3-d]pyrimidinyl)amino)-N-(4-((4-methyl-1-piperazinyl)methyl)phenyl)-1H-3-pyrazolecarboxamide] | 65.12% | 54.93% |  |  | 
Cc1sc2ncnc(Nc3c[nH]nc3C(=O)Nc3ccc(CN4CCOCC4)cc3)c2c1C [Compound I-8, 4-(4-(5,6-dimethylthieno[2,3-d]pyrimidinyl)amino)-N-(4-((4-morpholinyl)methyl)phenyl)-1H-3-pyrazolecarboxamide] | 54.65% | 48.49% |  |  | 
O=C(Nc1ccc(CN2CCOCC2)cc1)c1n[nH]cc1Nc1ncnc2ccsc12 [Compound I-10, 4-(4-thieno[3,2-d]pyrimidinylamino)-N-(4-((4-morpholinyl)methyl)phenyl)-1H-3-pyrazolecarboxamide] |  |  | 56.2% | 54.9% | 275 to 277 °C
O=C(Nc1ccc(CN2CCOCC2)cc1)c1n[nH]cc1Nc1ncnc2[nH]ccc12 [Compound I-12, 4-(4-(7H-pyrrolo[2,3-d]pyrimidinyl)amino)-N-(4-((4-morpholinyl)methyl)phenyl)-1H-3-pyrazolecarboxamide] | 66.39% | 49.44% |  |  | 
Cc1cc2ncnc(Nc3c[nH]nc3C(=O)Nc3ccc(CN4CCOCC4)cc3)c2[nH]1 [Compound I-20, 4-(4-(6-methyl-5H-pyrrolo[3,2-d]pyrimidinyl)amino)-N-(4-((4-morpholinyl)methyl)phenyl)-1H-3-pyrazolecarboxamide] | 62.25% | 60.72% |  |  | 
O=C(Nc1ccc(CN2CCOCC2)cc1)c1n[nH]cc1Nc1ncnc2ccoc12 [Compound I-24, 4-(4-furo[3,2-d]pyrimidinylamino)-N-(4-((4-morpholinyl)methyl)phenyl)-1H-3-pyrazolecarboxamide] |  |  | 67.1% | 49.2% | 271 to 273 °C
O=C(Nc1ccc(CN2CCOCC2)cc1)c1n[nH]cc1Nc1nccc2ccsc12 [Compound I-30, 4-(7-thieno[2,3-c]pyridylamino)-N-(4-((4-morpholinyl)methyl)phenyl)-1H-3-pyrazolecarboxamide] |  |  | 73.1% | 55.1% | 271 to 273 °C
Cc1csc2c(Nc3c[nH]nc3C(=O)Nc3ccc(CN4CCN(C)CC4)cc3)nccc12 [Compound I-31, 4-(7-(3-methylthieno[2,3-c]pyridyl)amino)-N-(4-((4-methyl-1-piperazinyl)methyl)phenyl)-1H-3-pyrazolecarboxamide] | 45.34% | 70.27% |  |  | 
O=C(Nc1ccc(CN2CCOCC2)cc1)c1n[nH]cc1Nc1nccc2occc12 [Compound I-34, 4-(4-furo[3,2-c]pyridylamino)-N-(4-((4-morpholinyl)methyl)phenyl)-1H-3-pyrazolecarboxamide] |  |  | 65.8% | 50.5% | 268 to 271 °C
Cc1cc2c(Nc3c[nH]nc3C(=O)Nc3ccc(CN4CCN(C)CC4)cc3)nccc2o1 [Compound I-35, 4-(4-(2-methylfuro[3,2-c]pyridyl)amino)-N-(4-((4-methyl-1-piperazinyl)methyl)phenyl)-1H-3-pyrazolecarboxamide] | 73.23% | 55.99% |  |  | 
Cc1cc2c(Nc3c[nH]nc3C(=O)Nc3ccc(CN4CCOCC4)cc3)nccc2o1 [Compound I-36, 4-(4-(2-methylfuro[3,2-c]pyridyl)amino)-N-(4-((4-morpholinyl)methyl)phenyl)-1H-3-pyrazolecarboxamide] | 64.51% | 56.23% |  |  | 
CN1CCN(Cc2ccc(NC(=O)c3n[nH]cc3Nc3nccc4cc[nH]c34)cc2)CC1 [Compound I-43, 4-(7-(1H-pyrrolo[2,3-c]pyridyl)amino)-N-(4-((4-methyl-1-piperazinyl)methyl)phenyl)-1H-3-pyrazolecarboxamide] | 76.09% | 55.02% |  |  | 
Cc1cc2ccnc(Nc3c[nH]nc3C(=O)Nc3ccc(CN4CCOCC4)cc3)c2[nH]1 [Compound I-46, 4-(7-(2-methyl-1H-pyrrolo[2,3-c]pyridyl)amino)-N-(4-((4-morpholinyl)methyl)phenyl)-1H-3-pyrazolecarboxamide] | 68.57% | 60.73% |  |  | 

Next, values leading:

CDK2 inhibition % (1 × 10^−6 mol/L) (CDK2/A) | Aurora A inhibition % (1 × 10^−6 mol/L) (Aurora A) | inhibition at 1 µM (CDK2/A) | inhibition at 1 µM (Aurora A) | melting point | Compound
75.91% | 54.94% |  |  |  | 4-(7-(1H-pyrrolo[2,3-c]pyridyl)amino)-N-(4-((4-morpholinyl)methyl)phenyl)-1H-3-pyrazolecarboxamide [Compound I-44]
65.78% | 66.26% |  |  |  | Cc1cc2c(Nc3c[nH]nc3C(=O)Nc3ccc(CN4CCOCC4)cc3)ncnc2[nH]1 [Compound I-14, 4-(4-(6-methyl-7H-pyrrolo[2,3-d]pyrimidinyl)amino)-N-(4-((4-morpholinyl)methyl)phenyl)-1H-3-pyrazolecarboxamide]
64.99% | 53.66% |  |  |  | O=C(Nc1ccc(CN2CCOCC2)cc1)c1n[nH]cc1Nc1ncnc2cc[nH]c12 [Compound I-18, 4-(4-(5H-pyrrolo[3,2-d]pyrimidinyl)amino)-N-(4-((4-morpholinyl)methyl)phenyl)-1H-3-pyrazolecarboxamide]
 |  | 73.1% | 61.1% | 269 to 271 °C | O=C(Nc1ccc(CN2CCOCC2)cc1)c1n[nH]cc1Nc1nccc2sccc12 [Compound I-26, 4-(4-thieno[3,2-c]pyridylamino)-N-(4-((4-morpholinyl)methyl)phenyl)-1H-3-pyrazolecarboxamide]
76.91% | 67.63% |  |  |  | Cc1cc2c(Nc3c[nH]nc3C(=O)Nc3ccc(CN4CCOCC4)cc3)nccc2s1 [Compound I-28, 4-(4-(2-methylthieno[3,2-c]pyridyl)amino)-N-(4-((4-morpholinyl)methyl)phenyl)-1H-3-pyrazolecarboxamide]
38.28% | 67.45% |  |  |  | Cc1csc2c(Nc3c[nH]nc3C(=O)Nc3ccc(CN4CCOCC4)cc3)nccc12 [Compound I-32, 4-(7-(3-methylthieno[2,3-c]pyridyl)amino)-N-(4-((4-morpholinyl)methy)phenyl)-1H-3-pyrazolecarboxamide]
44.93% | 45.08% |  |  |  | CN1CCN(Cc2ccc(NC(=O)c3n[nH]cc3Nc3nccc4occc34)cc2)CC1 [Compound I-33, 4-(4-furo[3,2-c]pyridylamino)-N-(4-((4-methyl-1-piperazinyl)menthyl)phenyl)-1H-3-pyrazolecarboxamide]
60.11% | 63.21% |  |  |  | Cc1cc2ccnc(Nc3c[nH]nc3C(=O)Nc3ccc(CN4CCN(C)CC4)cc3)c2[nH]1 [Compound I-45, 4-(7-(2-methyl-1H-pyrrolo[2,3-c]pyridyl)amino)-N-(4-((4-methyl-1-piperazinyl)methyl)phenyl)-1H-3-pyrazolecarboxamide]
